Values of other authors, collected in patent US20170135989A1, “ALLISARTAN ISOPROXIL SOLID DISPERSION AND PHARMACEUTICAL COMPOSITION” (SHENZHEN SALUBRIS PHARMACEUTICALS CO., LTD, priority 2014, published 2017).

Columns and labels:
[1] = from CN200680000397.8
angiotensin II receptor = molecular target: T1, angiotensin II receptor (Homo sapiens, UniProt P30556); conditions: from CN200680000397.8; compared with products of the same type (such as losartan)
T1 sequence (P30556 1-359): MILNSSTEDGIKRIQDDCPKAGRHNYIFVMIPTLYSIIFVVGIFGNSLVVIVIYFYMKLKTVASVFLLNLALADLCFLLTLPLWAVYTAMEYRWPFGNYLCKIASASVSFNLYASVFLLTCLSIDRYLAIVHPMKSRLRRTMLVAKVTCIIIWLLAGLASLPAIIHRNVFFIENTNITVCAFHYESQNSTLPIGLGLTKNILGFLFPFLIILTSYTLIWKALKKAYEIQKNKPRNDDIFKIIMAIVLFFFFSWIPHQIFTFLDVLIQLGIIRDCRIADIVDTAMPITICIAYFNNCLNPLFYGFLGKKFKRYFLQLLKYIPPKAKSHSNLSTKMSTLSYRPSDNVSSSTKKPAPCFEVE

Solubility in water: low
Structure (SMILES): CCCCc1nc(Cl)c(C(=O)OCOC(=O)OC(C)C)n1Cc1ccc(-c2ccccc2-c2nnn[nH]2)cc1 [Allisartan isoproxil, 2-butyl-4-chloro-1-[2′-(1H-tetrazol-5-yl)-1,1′-biphenyl-methyl]-imidazole-5-carboxylic acid, 1-[(isopropoxy)-carbonyloxy]-, methyl ester]
Toxicity [1]: low toxicity | Antihypertensive effect (angiotensin II receptor): better antihypertensive effect than products of the same type
